# Experimental data from US8106225B2, “Methods of preparing substituted tetracyclines with transition metal-based chemistries” (Trustees of Tufts College, priority 1999, dated 2012).
# Experiments:
# Experiment in all cases: Antibacterial activity in vitro, MIC by broth dilution
# Type in all cases: cell-based
# E. coli D1-209 Tc^r = tested on: E. coli D1-209 Tc^r; set-up: unit not given here; conditions: E. coli D1-209, tetracycline resistant, 18 hrs
# Description: (§1) Various compounds made in accordance with the invention were evaluated for anti-bacterial activity in vitro as follows. The minimum inhibitory concentration, the lowest concentration of drug that inhibits bacterial growth at 18 hrs at their appropriate temperature, is determined by the broth dilution method using L-broth or Mueller-Hinton broth. The Mueller-Hinton broth was cation-adjusted accordingly and all bacteriological methods were performed as was described by Waitz, J. A., National Commission for Clinical Laboratory Standards Document M7-A2, vol. 10, no. 8, pp. 13-20, 2nd edition, Villanova, Pa. (1990). The organisms tested represent gram-positive and gram-negative bacterial species that are susceptible to tetracyclines or are resistant to tetracyclines due to the ability to efflux tetracyclines or which confer resistance by ribosomal protection mechanisms. The clinical strains used are either susceptible to tetracyclines or are resistant to them by either drug efflux or ribosomal protection.
# [1] = tested on: S. warnerii Tc^r ATCC12715; set-up: unit not given here; conditions: S. warnerii ATCC12715, tetracycline resistant, 18 hrs
# Description: as §1
# E. coli D1-299 Tc^r = tested on: E. coli D1-299 Tc^r; set-up: unit not given here; conditions: E. coli D1-299, tetracycline resistant, 18 hrs
# Description: as §1
# E. hirae ATCC9790 Tc^s = tested on: E. hirae ATCC9790 Tc^s; set-up: unit not given here; conditions: E. hirae ATCC9790, tetracycline susceptible, 18 hrs
# Description: as §1
# S. aureus MRSA5 Tc^r = tested on: S. aureus MRSA5 Tc^r; set-up: unit not given here; conditions: S. aureus MRSA5, tetracycline resistant, 18 hrs
# Description: as §1
# S. aureus RN450 Tc^s = conditions: S. aureus RN450, tetracycline susceptible, 18 hrs
# Description: as §1
# [2] = tested on: E. hirae 9790 with pAM211 Tc^r; conditions: E. hirae 9790 with pAM211, tetracycline resistant, 18 hrs
# Description: as §1
# [3] = tested on: E. coli D 31m4 pHCM1 Tc^r; conditions: E. coli D 31m4 pHCM1, tetracycline resistant, 18 hrs
# Description: as §1
# E. coli ML308-225 Tc^s = tested on: E. coli ML308-225 Tc^s; set-up: unit not given here; conditions: E. coli ML308-225, tetracycline susceptible, 18 hrs
# Description: as §1
# [4] = tested on: E. hirae 9790 with pMV158 Tc^r; conditions: E. hirae 9790 with pMV158, tetracycline resistant, 18 hrs
# Description: as §1
# S. aureus RN4250 Tc^r = conditions: S. aureus RN4250, tetracycline resistant, 18 hrs
# Description: as §1
# E. coli D31m4 Tc^s = conditions: E. coli D31m4, tetracycline susceptible, 18 hrs
# Description: as §1
SMILES,Antibacterial Activity (minimum inhibitory concentration) (E. coli D1-209 Tc^r),Antibacterial Activity (minimum inhibitory concentration) [1],Antibacterial Activity (minimum inhibitory concentration) (E. coli D1-299 Tc^r),Antibacterial Activity (minimum inhibitory concentration) (E. hirae ATCC9790 Tc^s),Antibacterial Activity (minimum inhibitory concentration) (S. aureus MRSA5 Tc^r),Antibacterial Activity (minimum inhibitory concentration) (S. aureus RN450 Tc^s),Antibacterial Activity (minimum inhibitory concentration) [2],Antibacterial Activity (minimum inhibitory concentration) [3],Antibacterial Activity (minimum inhibitory concentration) (E. coli ML308-225 Tc^s),Antibacterial Activity (minimum inhibitory concentration) [4],Antibacterial Activity (minimum inhibitory concentration) (S. aureus RN4250 Tc^r),Antibacterial Activity (minimum inhibitory concentration) (E. coli D31m4 Tc^s)
"CCOc1ccc(C=C2c3cccc(O)c3C(=O)C3=C(O)C4(O)C(=O)C(C(N)=O)=C(O)C(N(C)C)C4C(O)C23)cc1 (stereo not drawn) [K, [4S-(4a,12aα)]-13-(4′-ethoxyphenyl)-4-(dimethylamino)-1,4,4a,5,5a,6,11,12a-octahydro-3,5,10,12,12a-pentahydroxy-6-methylene-1,11-dioxo-2-naphthacenecarboxamide]",>50,12.5,>50,0.39,6.25,0.195,3.12,>50,,,,
"CC1c2ccc(/C=C/C(=O)O)c(O)c2C(=O)C2=C(O)C3(O)C(=O)C(C(N)=O)=C(O)[C@@H](N(C)C)C3C(O)C21 (stereo partly drawn) [D, [4S-(4a,12aα)]-9-[3′-(E)-propenoic acid]-4-(dimethylamino)-1,4,4a,5,5a,6,11,12a-octahydro-3,5,10,12,12a-pentahydroxy-6-methyl-1,11-dioxo-2-naphthacenecarboxamide]",>50,>50,>50,3.12,>50,3.12,>50,>50,25,12.5,>50,>50
"Cc1ccc(C=C2c3cccc(O)c3C(=O)C3=C(O)C4(O)C(=O)C(C(N)=O)=C(O)C(N(C)C)C4C(O)C23)cc1 (stereo not drawn) [I, [4S-(4a,12aα)]-13-(4′-methylphenyl)-4-(dimethylamino)-1,4,4a,5,5a,6,11,12a-octahydro-3,5,10,12,12a-pentahydroxy-6-methylene-1,11-dioxo-2-naphthacenecarboxamide]",>50,12.5,>50,0.39,6.25,≦0.098,,25,>50,3.12,,
"CN(C)C1C(O)=C(C(N)=O)C(=O)C2(O)C(O)=C3C(=O)c4c(O)c(-c5ccccc5)cc(-c5ccccc5)c4CC3CC12 (stereo not drawn) [H, [4S-(4a,12aα)]-7-phenyl-9-phenyl-4-(dimethylamino)-1,4,4a,5,5a,6,11,12a-octahydro-3,10,12,12a-tetrahydroxy-1,11-dioxo-2-naphthacenecarboxamide]",>50,0.78,>50,0.78,0.78,1.56,,,>50,0.39,0.78,1.56
CN(C)C1C(O)=C(C(N)=O)C(=O)C2(O)C(O)=C3C(=O)c4c(O)ccc(-c5ccc(Cl)cc5)c4CC3CC12 (centres unmarked) [G],>50,≦0.098,>50,≦0.098,0.195,≦0.098,≦0.098,0.78,>50,≦0.098,≦0.098,0.78
"CCCCOC(=O)/C=C/c1cc(N(C)C)c2c(c1O)C(=O)C1=C(O)C3(O)C(=O)C(C(N)=O)=C(O)C(N(C)C)C3CC1C2 (stereo not drawn) [F, [4S-(4a,12aα)]-9-[3′-(E)-butylpropenoate]-4,7-Bis(dimethylamino)-1,4,4a,5,5a,6,11,12a-octahydro-3,10,12,12a-tetrahydroxy-1,11-dioxo-2-naphthacenecarboxamide]",>50,3.12,>50,3.12,3.12,1.56,,6.25,>50,,,3.12
"CCCCOC(=O)/C=C/c1ccc2c(c1O)C(=O)C1=C(O)C3(O)C(=O)C(C(N)=O)=C(O)[C@@H](N(C)C)C3C(O)C1C2C (stereo partly drawn) [E, [4S-(4a,12aα)]-9-[3′-(E)-butylpropenoate]-4-(dimethylamino)-1,4,4a,5,5a,6,11,12a-octahydro-3,5,10,12,12a-pentahydroxy-6-methyl-1,11-dioxo-2-naphthacenecarboxamide]",>50,6.25,>50,3.12,0.39,0.78,,,6.25,,,
"C[C@H]1c2cccc(O)c2C(=O)C2=C(O)[C@]3(O)C(=O)C(C(N)=O)=C(O)[C@@H](N(C)C)[C@@H]3[C@@H](O)[C@@H]21 [Doxy, [4S-(4a,12aα)]-4-(dimethylamino)-1,4,4a,5,5a,6,11,12a-octahydro-3,5,10,12,12a-pentahydroxy-6-methyl-1,11-dioxo-2-naphthacenecarboxamide, reference compound]",50,50,25,0.195,6.25,<0.098,,25,0.78,,25,1.56
"CN(C)[C@@H]1C(O)=C(C(N)=O)C(=O)C2(O)C(O)=C3C(=O)c4c(O)cccc4C(=Cc4cccc(C(=O)O)c4)C3C(O)C12 (stereo partly drawn) [J, [4S-(4a,12aα)]-13-(3′-carboxyphenyl)-4-(dimethylamino)-1,4,4a,5,5a,6,11,12a-octahydro-3,5,10,12,12a-pentahydroxy-6-methylene-1,11-dioxo-2-naphthacenecarboxamide]",>50,>50,>50,3.12,>50,0.39,>50,>50,>50,>50,>50,>50
